Assay results reported in US11401246B2, “Triazole glycolate oxidase inhibitors” (CANTERO THERAPEUTICS, INC., priority 2018, dated 2022).
pIC50: −log10 of the molar value. Counter-ions that a name gives are not always drawn. Like-named read-outs stand apart in the source and are kept apart here.

Target: T1, human glycolate oxidase (hGO) (Homo sapiens, UniProt Q9UJM8)
T1 construct: His-tag (6 histidines, pET-15b) (N); made in house; host or cells: E. coli BL21 (DE3)
T1 sequence (Q9UJM8 1-370): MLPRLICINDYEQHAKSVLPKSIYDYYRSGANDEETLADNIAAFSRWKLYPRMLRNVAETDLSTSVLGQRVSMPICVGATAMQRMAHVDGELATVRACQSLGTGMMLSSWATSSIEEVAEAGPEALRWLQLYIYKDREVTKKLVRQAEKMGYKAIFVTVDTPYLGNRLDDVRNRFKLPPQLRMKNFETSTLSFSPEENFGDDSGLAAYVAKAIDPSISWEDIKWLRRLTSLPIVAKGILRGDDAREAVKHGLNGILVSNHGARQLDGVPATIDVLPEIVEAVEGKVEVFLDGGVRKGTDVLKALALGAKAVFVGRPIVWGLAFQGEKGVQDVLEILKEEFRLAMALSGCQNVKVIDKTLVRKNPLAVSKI
Assay: In vitro inhibition of human glycolate oxidase (enzymatic assay, HRP-coupled Trinder reaction);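 as to % Inhibition: values are IC50 potency bins despite the % Inhibition label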
Assay type: biochemical
Excerpt: The catalytic reactions used for assaying glycolate oxidase activity in the presence of compounds according to the present disclosure are outlined in FIG. 2. Glycolate oxidase (GO)-catalyzed conversion of glycolate to glyoxylate (top reaction), with the concomitant reduction of the cofactor flavin mononucleotide (FMN), uses molecular oxygen (O2) for recovering its oxidative state, releasing hydrogen peroxide (H2O2). The Trinder reaction (bottom reaction), in which horseradish peroxidase (HRP) uses hydrogen peroxide, 4-aminoantipyrine and a phenol derivative (sulphonated DCIP) to generate a quinoneimine dye that is spectrophotometrically measured.
Human glycolate oxidase (hGO) expression. BL21 (DE3) E. coli transformed with recombinant pET-15b expression vector with the N-terminal His-tag human Hao1 cDNA was grown in LB medium in the presence of 0.1 mg/ml ampicillin. For purification of recombinant human glycolate oxidase (hGO) expressed in BL21 E. coli, bacteria pellets were thawed and re-suspended in 2 ml lysis buffer (50 mM NaH2PO4, 300 mM NaCl, 10 mM imidazole, 50 μM FMN, pH 7.5), and then treated for 30 minutes with 1 mM PMSF for protease inhibition, 0.1% Triton X-100 and 0.2 mg/ml lysozyme to break cellular membranes. After sonication, cells were centrifuged and the supernatant containing the total cellular extract (pre-column fraction) was loaded into a Ni-NTA agarose column and incubated for 30 minutes at 4° C. to allow binding of the 6 histidine tail of recombinant GO protein to the nickel ions. The column was washed with two bed volumes of lysis buffer with 20 mM imidazole to eliminate unbound proteins (wash fraction). GO was eluted using the same buffer with 300 mM imidazole. Fraction containing purified GO was dialyzed against 300 ml of dialysis buffer (50 mM NaH2PO4, 300 mM NaCl, pH 7.5) at 4° C. in agitation overnight, and then kept at 4° C. in darkness. Protein were quantified by the bicinchoninic acid (BCA) assay.
Enzymatic assays. Enzymatic activity of hGO was determined in the presence of glycolate as substrate (40 mM glycolic acid) and phosphate buffer (50 mM KPO4, 0.1 mM EDTA, pH 7). The production of glyoxylate was indirectly measured by the quantification of hydrogen peroxide formed during the first oxidation reaction. […] Enzymatic activity was calculated at 1 minute after initiation of the Trinder reaction.

[1] = recombinant hGO, 40 mM glycolic acid, pH 7, read at 515 nm, 1 minute after initiation of Trinder reaction, read-out: % Inhibition

| pIC50 [1] | pIC50 | SMILES |
| --- | --- | --- |
| < 6.70 | – | O=C(O)c1nn[nH]c1Oc1ccc(N2CCOCC2)cc1 [Example 1, 5-(4-morpholinophenoxy)-1H-1,2,3-triazole-4-carboxylic Acid] |
| > 7.00 | – | O=C(O)c1nn[nH]c1Oc1ccc(N2CCNCC2)cc1 [Example 2, 5-(4-(piperazin-1-yl)phenoxy)-1H-1,2,3-triazole-4-carboxylic Acid] |
| < 6.70 | – | CC(=O)N1CCN(c2ccc(Oc3[nH]nnc3C(=O)O)cc2)CC1 [Example 3, 5-(4-(4-acetylpiperazin-1-yl)phenoxy)-1H-1,2,3-triazole-4-carboxylic Acid] |
| > 7.00 | – | O=C(O)c1nn[nH]c1Oc1ccc(-n2cccn2)cc1 [Example 4, 5-(4-(1H-pyrazol-1-yl)phenoxy)-1H-1,2,3-triazole-4-carboxylic Acid] |
| < 6.70 | – | O=C(O)c1nn[nH]c1Oc1ccccc1Br [Example 5, 5-(2-bromophenoxy)-1H-1,2,3-triazole-4-carboxylic Acid] |
| > 7.00 | – | O=C(O)c1nn[nH]c1Oc1ccc(Br)cc1 [Example 6, 5-(4-bromophenoxy)-1H-1,2,3-triazole-4-carboxylic Acid] |
| 6.70 to 7.00 | – | O=C(O)c1nn[nH]c1Oc1cccc(Br)c1 [Example 7, 5-(3-bromophenoxy)-1H-1,2,3-triazole-4-carboxylic Acid] |
| – | 6.70 to 7.00 | O=C(O)c1nn[nH]c1Oc1ccc(Cl)c(F)c1 [Example 8, 5-(4-chloro-3-fluorophenoxy)-1H-1,2,3-triazole-4-carboxylic Acid] |
| < 6.70 | – | O=C(O)c1nn[nH]c1Oc1ccc(F)cc1 [Example 9, 5-(4-fluorophenoxy)-1H-1,2,3-triazole-4-carboxylic Acid Sodium Salt] |
| – | > 7.00 | O=C(O)c1nn[nH]c1Oc1ccc(-c2ccc(Br)cc2)cc1 [Example 10, 5-((4′-bromo-[1,1′-biphenyl]-4-yl)oxy)-1H-1,2,3-triazole-4-carboxylic Acid] |
| 6.70 to 7.00 | – | O=C(O)c1nn[nH]c1Oc1ccc(-c2cn[nH]c2)cc1 [Example 11, 5-(4-(1H-pyrazol-4-yl)phenoxy)-1H-1,2,3-triazole-4-carboxylic Acid] |
| > 7.00 | – | O=C(O)c1nn[nH]c1Oc1ccc(-c2ccn[nH]2)cc1 [Example 12, 5-(4-(1H-pyrazol-5-yl)phenoxy)-1H-1,2,3-triazole-4-carboxylic Acid] |
| > 7.00 | – | Cc1ncc(-c2ccc(Oc3[nH]nnc3C(=O)O)cc2)cn1 [Example 13, 5-(4-(2-methylpyrimidin-5-yl)phenoxy)-1H-1,2,3-triazole-4-carboxylic Acid] |
| 6.70 to 7.00 | – | O=C(O)c1nn[nH]c1Oc1ccc(-c2cccnc2)cc1 [Example 14, 5-(4-(pyridin-3-yl)phenoxy)-1H-1,2,3-triazole-4-carboxylic Acid] |
| > 7.00 | – | O=C(O)c1nn[nH]c1Oc1ccc(-c2ccc(-c3ccncc3)cc2)cc1 [Example 15, 5-((4′-(pyridin-4-yl)-[1,1′-biphenyl]-4-yl)oxy)-1H-1,2,3-triazole-4-carboxylic Acid] |
| > 7.00 | – | O=C(O)c1nn[nH]c1Oc1ccc(-c2ccc(-c3cccc(OC(F)F)c3)cc2)cc1 [Example 16, 5-((3″-(difluoromethoxy)-[1,1′:4′,1″-terphenyl]-4-yl)oxy)-1H-1,2,3-triazole-4-carboxylic Acid] |
| < 6.70 | – | O=C(O)c1nn[nH]c1Oc1ccc(-c2ccc(-c3ccc(OC(F)F)cc3)cc2)cc1 [Example 17, 5-((4″-(difluoromethoxy)-[1,1′:4′,1″-terphenyl]-4-yl)oxy)-1H-1,2,3-triazole-4-carboxylic Acid] |
| > 7.00 | – | O=C(O)c1nn[nH]c1Oc1ccc(-c2cccnc2F)cc1 [Example 18, 5-(4-(2-fluoropyridin-3-yl)phenoxy)-1H-1,2,3-triazole-4-carboxylic Acid] |
| > 7.00 | – | O=C(O)c1nn[nH]c1Oc1ccc(-c2ccncc2)cc1 [Example 19, 5-(4-(pyridin-4-yl)phenoxy)-1H-1,2,3-triazole-4-carboxylic Acid] |

| pIC50 [1] | pIC50 | SMILES |
| --- | --- | --- |
| – | 6.70 to 7.00 | N#Cc1cccc(-c2ccc(Oc3[nH]nnc3C(=O)O)cc2)c1 [Example 20, 5-((3′-cyano-[1,1′-biphenyl]-4-yl)oxy)-1H-1,2,3-triazole-4-carboxylic Acid] |
| > 7.00 | – | O=C(O)c1nn[nH]c1Oc1ccc(-c2cnn(C3CCC3)c2)cc1 [Example 21, 5-(4-(1-cyclobutyl-1H-pyrazol-4-yl)phenoxy)-1H-1,2,3-triazole-4-carboxylic Acid] |
| – | 6.70 to 7.00 | COc1ccc(-c2ccc(Oc3[nH]nnc3C(=O)O)cc2)cc1 [Example 22, 5-((4′-methoxy-[1,1′-biphenyl]-4-yl)oxy)-1H-1,2,3-triazole-4-carboxylic Acid] |
| > 7.00 | – | O=C(O)c1nn[nH]c1Oc1ccc(-c2ccsc2)cc1 [Example 23, 5-(4-(thiophen-3-yl)phenoxy)-1H-1,2,3-triazole-4-carboxylic Acid] |
| 6.70 to 7.00 | – | O=C(O)c1nn[nH]c1Oc1ccc(-c2nccs2)cc1 [Example 25, 5-(4-(thiazol-2-yl)phenoxy)-1H-1,2,3-triazole-4-carboxylic Acid] |
| 6.70 to 7.00 | – | O=C(O)c1nn[nH]c1Oc1ccc(-c2ncco2)cc1 [Example 26, 5-(4-(oxazol-2-yl)phenoxy)-1H-1,2,3-triazole-4-carboxylic Acid] |
| 6.70 to 7.00 | – | O=C(O)c1nn[nH]c1Oc1ccc(-c2ccc3nccn3c2)cc1 [Example 27, 5-(4-(imidazo[1,2-a]pyridin-6-yl)phenoxy)-1H-1,2,3-triazole-4-carboxylic Acid] |
| 6.70 to 7.00 | – | O=C(O)c1nn[nH]c1Oc1ccc(-c2ccccc2OC(F)F)cc1 [Example 28, 5-((2′-(difluoromethoxy)-[1,1′-biphenyl]-4-yl)oxy)-1H-1,2,3-triazole-4-carboxylic Acid] |
| 6.70 to 7.00 | – | N#Cc1ccc(-c2ccc(Oc3nn[nH]c3C(=O)O)cc2)cc1 [Example 29, 5-((4′-cyano-[1,1′-biphenyl]-4-yl)oxy)-1H-1,2,3-triazole-4-carboxylic Acid] |
| – | > 7.00 | Cc1ccc(-c2ccc(Oc3[nH]nnc3C(=O)O)cc2)cc1 [Example 31, 5-((4′-methyl-[1,1′-biphenyl]-4-yl)oxy)-1H-1,2,3-triazole-4-carboxylic Acid] |
| > 7.00 | – | CC(C)c1ccc(-c2ccc(Oc3[nH]nnc3C(=O)O)cc2)cc1 [Example 32, 5-((4′-isopropyl-[1,1′-biphenyl]-4-yl)oxy)-1H-1,2,3-triazole-4-carboxylic Acid] |
| > 7.00 | – | O=C(O)c1nn[nH]c1Oc1ccc(-c2ccc(F)c(Cl)c2)cc1 [Example 33, 5-((3′-chloro-4′-fluoro-[1,1′-biphenyl]-4-yl)oxy)-1H-1,2,3-triazole-4-carboxylic Acid] |
| 6.70 to 7.00 | – | O=C(O)c1nn[nH]c1Oc1ccc(-c2cccc(F)c2F)cc1 [Example 34, 5-((2′,3′-difluoro-[1,1′-biphenyl]-4-yl)oxy)-1H-1,2,3-triazole-4-carboxylic Acid] |
| 6.70 to 7.00 | – | CC(C)(C)c1ccc(-c2ccc(Oc3[nH]nnc3C(=O)O)cc2)cc1 [Example 35, 5-((4′-(tert-butyl)-[1,1′-biphenyl]-4-yl)oxy)-1H-1,2,3-triazole-4-carboxylic Acid] |
| – | > 7.00 | O=C(O)c1nn[nH]c1Oc1ccc(Cl)cc1 [Example 36, 5-(4-chlorophenoxy)-1H-1,2,3-triazole-4-carboxylic Acid] |
| > 7.00 | – | O=C(O)c1nn[nH]c1Oc1ccc(-c2cnccn2)cc1 [Example 37, 5-(4-(pyrazin-2-yl)phenoxy)-1H-1,2,3-triazole-4-carboxylic Acid] |
| 6.70 to 7.00 | – | O=C(O)c1nn[nH]c1Oc1ccc(-c2ccc(OC(F)F)cc2)cc1 [Example 39, 5-((4′-(difluoromethoxy)-[1,1′-biphenyl]-4-yl)oxy)-1H-1,2,3-triazole-4-carboxylic Acid] |
| > 7.00 | – | O=C(O)c1nn[nH]c1Oc1ccc(-c2cccc(OC(F)F)c2)cc1 [Example 40, 5-((3′-(difluoromethoxy)-[1,1′-biphenyl]-4-yl)oxy)-1H-1,2,3-triazole-4-carboxylic Acid] |
| 6.70 to 7.00 | – | O=C(O)c1nn[nH]c1Oc1ccc(-c2ccoc2)cc1 [Example 41, 5-(4-(furan-3-yl)phenoxy)-1H-1,2,3-triazole-4-carboxylic Acid] |
